One test addresses T1, bovine factor Xa (Bos taurus, UniProt P00743).
T1 construct: bovine factor Xa, Chromogenix, 2 nkat/mL; purchased Chromogenix
Briefly: Protease inhibitory assay, chromogenic substrate S-2222. The class given is biochemical. To be noted: cmpd conc 200 µM; for vinit: replicate values; for Ki: FactorXa, one of two values averaged in Supplementary Data 1, read-out: Ki.

A further test concerns the target T2, human thrombin (Homo sapiens, UniProt P00734).
T2 construct: human thrombin; purchased Sigma-Aldrich
Briefly: Protease inhibitory assay, chromogenic substrate S-2238. The class given is biochemical. To be noted: for vinit: replicate values; for Ki: Thrombin, one of two values averaged in Supplementary Data 1, read-out: Ki.

[1] abbreviates: FactorXa primary screening, substrate 100 µM.
The mark [2] stands for this setting: Thrombin primary screening, substrate 40 µM, cmpd conc 500 µM.
The mark [3] stands for this setting: Thrombin Ki determination, substrate 20 µM, cmpd conc 200 µM.
Where [4] appears, read: Thrombin Ki determination, substrate 40 µM, cmpd conc 200 µM.
[5] abbreviates: substrate 20 µM, cmpd conc 200 µM.
Setting [6] is: substrate 40 µM, cmpd conc 200 µM.
[7] abbreviates: FactorXa Ki determination, substrate 100 µM.
Setting [8] is: FactorXa Ki determination, substrate 200 µM.

This note sets out measurements from PMC8159961, “Exploring protein hotspots by optimized fragment pharmacophores” (Nature Communications, 2021).

Usually Ki stands for the equilibrium dissociation constant of an inhibitor or competing ligand from its target.

“And” between values parts separate entries of the source, which are not always exact repeats. Equal values may be shown once. Read-outs that look alike come from different tables or passages of the source.

T1 sequence (P00743 234-492 limits assumed): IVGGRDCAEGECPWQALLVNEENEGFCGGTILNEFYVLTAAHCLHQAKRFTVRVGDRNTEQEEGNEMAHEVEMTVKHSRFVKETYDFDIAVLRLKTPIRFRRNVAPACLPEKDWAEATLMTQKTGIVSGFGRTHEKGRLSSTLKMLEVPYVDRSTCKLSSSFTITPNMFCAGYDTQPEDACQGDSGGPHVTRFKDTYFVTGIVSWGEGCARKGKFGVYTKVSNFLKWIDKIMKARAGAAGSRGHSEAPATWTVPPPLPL
T1 sequence (P00743 41-180 partner limits assumed): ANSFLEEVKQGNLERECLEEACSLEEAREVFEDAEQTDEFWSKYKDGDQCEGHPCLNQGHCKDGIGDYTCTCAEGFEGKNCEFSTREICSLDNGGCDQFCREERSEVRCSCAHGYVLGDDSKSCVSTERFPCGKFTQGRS

Consider `N#Cc1ccc2ncsc2c1` [SX-C12], for which the “V0 / Vi” value stood at 1.17 at bovine factor Xa (setting [1]) and 0.98 on human thrombin (setting [2]). Further, the vinit was 10.6 and 14 on bovine factor Xa (setting [1]); 31.855 and 32.109 on human thrombin (setting [2]).

Consider `Nc1ccc(SC(F)F)cc1` [SX-D1], for which the “V0 / Vi” value at bovine factor Xa (setting [1]) amounted to 0.99; on human thrombin (setting [2]), 1.00. Further, the vinit at bovine factor Xa (setting [1]) was 18.218 and 17.091; on human thrombin (setting [2]), 28.182 and 30.8.

Turning to `CCc1ccc(NC2=NCCCS2)cc1` [SX-D2], at bovine factor Xa (setting [1]), the “V0 / Vi” value worked out at 1.02; the vinit was 16.873 and 17.6. Further, on human thrombin (setting [2]), the “V0 / Vi” value was 0.96; the vinit was 30.909 and 30.582.

In the case of `Nc1nnc(-c2cccs2)[nH]1` [SX-D3], the “V0 / Vi” value on bovine factor Xa (setting [1]) is listed as 1.09; on human thrombin (setting [3]), 1.11; on human thrombin (setting [4]), 1.08; on human thrombin (setting [2]) it was 1.08. In addition, the vinit on bovine factor Xa (setting [1]) is 16.545 and 15.782; at human thrombin (setting [3]), 23.075 and 23.01 and 25.41; at human thrombin (setting [4]), 30.327 and 31.656 and 32.05; at human thrombin (setting [2]) it was 26.655 and 27.673. In addition, the “vinit, avrg.” value on human thrombin (setting [3]) is listed as 23.831; on human thrombin (setting [4]) it was 31.345. The values for the Ki at human thrombin (setting [5]) and on human thrombin (setting [6]) were 204 µM and 158 µM, respectively.

In the case of `CCn1cnc2ccccc21` [SX-D4], at bovine factor Xa (setting [1]), the “V0 / Vi” value came out at 1.03; the vinit was 16.929 and 16.571. At human thrombin (setting [2]), the “V0 / Vi” value came out at 0.98 and the vinit came to 30.291.

As for `CCCN1C(=O)CC(=O)NC1=S` [SX-D5], at bovine factor Xa (setting [1]), the “V0 / Vi” value was 1.06; the vinit was 16.429 and 16.071. Also, on human thrombin (setting [2]), the “V0 / Vi” value is 1.13; the vinit is 26.909 and 25.673.

On to `Cc1ccc(C)n1Cc1ccccc1Cl` [SX-D6], for which, at bovine factor Xa (setting [1]), the “V0 / Vi” value came to 0.98; the vinit is 17.786 and 17.286. At human thrombin (setting [2]), the “V0 / Vi” value came out at 1.24; the vinit is 26.364 and 21.673.

With `Cc1ccc(-c2ccc(O)cc2)cc1` [SX-D7], on bovine factor Xa (setting [1]), the “V0 / Vi” value was found to be 1.15; the vinit is 14.909 and 16.073. On human thrombin (setting [2]), the “V0 / Vi” value stood at 1.05; the vinit was 30.8 and 28.545.

For the compound `c1ccc(Nc2nncs2)cc1` [SX-D8], the “V0 / Vi” value at bovine factor Xa (setting [7]) was found to be 1.15; at bovine factor Xa (setting [8]) it was 1.14; on bovine factor Xa (setting [1]) it was 1.17; on human thrombin (setting [2]), 0.99. For the same compound, the “vinit, avrg.” value on bovine factor Xa (setting [7]) stood at 14.126. Besides, the vinit was 15.1223 and 13.77 and 13.49 on bovine factor Xa (setting [7]); 30.094 and 32.958 and 33.09 on bovine factor Xa (setting [8]); 15.418 and 15.164 on bovine factor Xa (setting [1]); 30.873 and 31.527 at human thrombin (setting [2]). Moreover, the Ki on bovine factor Xa (substrate 100 µM) was found to be 814 µM; at bovine factor Xa (substrate 200 µM) it was 652 µM.

For `CC1CCc2sc(C(=O)O)cc2C1` (stereo not shown) [SX-D9], the “V0 / Vi” value at bovine factor Xa (setting [1]) stood at 1.04; on human thrombin (setting [3]) it was 1.41; at human thrombin (setting [4]), 1.17; at human thrombin (setting [2]), 1.40. Besides, the vinit is 17.818 and 16.655 on bovine factor Xa (setting [1]); 19.443 and 19.03 and 18.15 on human thrombin (setting [3]); 33.096 and 26.331 and 27.42 on human thrombin (setting [4]); 23.527 and 20.764 on human thrombin (setting [2]). Moreover, the “vinit, avrg.” value at human thrombin (setting [3]) stood at 18.876; at human thrombin (setting [4]), 28.950. The Ki on human thrombin (setting [5]) stood at 57 µM; at human thrombin (setting [6]), 73 µM.

`c1ccc2oc(C3CCCNC3)nc2c1` (stereo not shown) [SX-D10]: at bovine factor Xa (setting [1]), the “V0 / Vi” value is reported as 0.95; the vinit is 15 and 15.3. At human thrombin (setting [2]), the “V0 / Vi” value was 0.92; the vinit is 35.091 and 33.236.

As to `COc1ccc(CN2CCNCC2)cc1F` [SX-D11], at bovine factor Xa (setting [1]), the “V0 / Vi” value is given as 0.84; the vinit is 17.75 and 16.65. Also, on human thrombin (setting [2]), the “V0 / Vi” value came out at 0.91; the vinit is 34.582 and 34.364.

Consider `NC(=O)N1CCC(C(=O)O)CC1` [SX-D12], for which the “V0 / Vi” value is 1.16 at bovine factor Xa (setting [1]), 1.08 on human thrombin (setting [3]), 1.04 on human thrombin (setting [4]) and 1.12 on human thrombin (setting [2]). Further, the vinit on bovine factor Xa (setting [1]) was 11.2 and 13.7; on human thrombin (setting [3]), 23.803 and 25.267 and 24.313; at human thrombin (setting [4]), 34.041 and 32.608 and 31.031; at human thrombin (setting [2]), 28.036 and 28.145. Also, the “vinit, avrg.” value is 24.461 on human thrombin (setting [3]) and 32.560 on human thrombin (setting [4]). The Ki amounted to 273 µM on human thrombin (setting [5]) and 329 µM on human thrombin (setting [6]).

With `CC(=O)c1sc(-c2ccc(O)cc2)nc1C` [SX-E1], the “V0 / Vi” value at bovine factor Xa (setting [7]) worked out at 1.16; on bovine factor Xa (setting [8]), 1.13; at bovine factor Xa (setting [1]), 1.17; on human thrombin (setting [3]), 1.09; at human thrombin (setting [4]) it was 1.06; on human thrombin (setting [2]) it was 1.10. The “vinit, avrg.” value at bovine factor Xa (setting [7]) is 14.048; on human thrombin (setting [3]), 24.296; at human thrombin (setting [4]) it was 31.885. For the same compound, the vinit on bovine factor Xa (setting [7]) is 13.804 and 13.836 and 14.50; at bovine factor Xa (setting [8]), 32.734 and 31.114 and 32.88; at bovine factor Xa (setting [1]), 15.455 and 14.545; on human thrombin (setting [3]), 24.026 and 25.131 and 23.73; at human thrombin (setting [4]), 32.585 and 30.957 and 32.11; on human thrombin (setting [2]) it was 25.309 and 28. In addition, the Ki at bovine factor Xa (substrate 100 µM) turned out to be 781 µM; on bovine factor Xa (substrate 200 µM), 687 µM; on human thrombin (setting [5]) it was 251 µM; at human thrombin (setting [6]), 207 µM.

Regarding `O=C(c1ccncc1)N1CCNCC1` [SX-E2], on bovine factor Xa (setting [1]), the “V0 / Vi” value was determined as 0.96; the vinit is 17.673 and 18.8. At human thrombin (setting [2]), the “V0 / Vi” value is given as 0.93; the vinit is 31.236 and 31.673.

As for `CC1C(=O)NC(=O)N1c1ccc(Cl)cc1` (stereo not shown) [SX-E3], the “V0 / Vi” value on bovine factor Xa (setting [1]) stood at 1.01; at human thrombin (setting [2]), 0.98. Moreover, the vinit on bovine factor Xa (setting [1]) is 17.673 and 16.982; at human thrombin (setting [2]), 29.964 and 29.673.

For the compound `CCN(CC)c1cccc(C)c1` [SX-E4], on bovine factor Xa (setting [1]), the “V0 / Vi” value is given as 0.95; the vinit is 17.571 and 18.5. At human thrombin (setting [2]), the “V0 / Vi” value is 0.95; the vinit was 31.418 and 31.2.

Turning to `O=C(CN1CCNCC1)c1ccccc1` [SX-E5], the “V0 / Vi” value at bovine factor Xa (setting [1]) is 0.97; on human thrombin (setting [2]), 1.06. The vinit was 18.286 and 17.357 on bovine factor Xa (setting [1]); 28.618 and 27.418 on human thrombin (setting [2]).

`Clc1ccc2nnnn2n1` [SX-E6]: the “V0 / Vi” value at bovine factor Xa (setting [1]) was 1.12; at human thrombin (setting [2]), 0.99. For the same compound, the vinit at bovine factor Xa (setting [1]) was 15.357 and 15.429; at human thrombin (setting [2]), 32.073 and 28.473.

For the compound `c1cnc2c(c1)NCCC2` [SX-E7], at bovine factor Xa (setting [1]), the “V0 / Vi” value is on record as 0.98; the vinit is 18.836 and 17.745. On human thrombin (setting [2]), the “V0 / Vi” value is reported as 0.93; the vinit was 33.927 and 32.545.

`COc1cccc(NC2=NCCCCC2)c1` [SX-E8]: the “V0 / Vi” value on bovine factor Xa (setting [1]) came out at 0.96; at human thrombin (setting [2]), 0.88. Moreover, the vinit is 18.764 and 18.473 on bovine factor Xa (setting [1]); 35.818 and 34.764 on human thrombin (setting [2]).

As for `O=C(O)C1CCN(c2ncccn2)CC1` [SX-E9], the “V0 / Vi” value on bovine factor Xa (setting [1]) amounted to 1.08; on human thrombin (setting [3]) it was 1.35; at human thrombin (setting [4]), 1.14; on human thrombin (setting [2]), 1.21. The vinit on bovine factor Xa (setting [1]) was 16.073 and 17.018; on human thrombin (setting [3]) it was 19.72 and 18.944 and 20.14; on human thrombin (setting [4]) it was 27.932 and 30.186 and 30.77; at human thrombin (setting [2]), 27.382 and 24. For the same compound, the “vinit, avrg.” value came out at 19.600 on human thrombin (setting [3]) and 29.629 on human thrombin (setting [4]). Besides, the Ki on human thrombin (setting [5]) stood at 65 µM; at human thrombin (setting [6]) it was 87 µM.

As to `N#Cc1ccc(C(=O)N2CCOCC2)cc1` [SX-E10], at bovine factor Xa (setting [1]), the “V0 / Vi” value worked out at 1.00; the vinit is 14.2 and 14.8. Further, at human thrombin (setting [2]), the “V0 / Vi” value came to 1.00; the vinit was 33.091 and 29.782.

For the compound `Oc1ccc(C2CCNCC2)cc1` [SX-E11], at bovine factor Xa (setting [1]), the “V0 / Vi” value came to 0.73; the vinit was 18.742 and 20.658. Further, at human thrombin (setting [2]), the “V0 / Vi” value is recorded as 1.00; the vinit is 31.345 and 31.818.

Consider `O=C(c1ccccc1F)N1CCNCC1` [SX-E12], for which the “V0 / Vi” value at bovine factor Xa (setting [7]) is 1.26; on bovine factor Xa (setting [8]) it was 1.17; at bovine factor Xa (setting [1]), 1.28; on human thrombin (setting [2]) it was 0.98. The “vinit, avrg.” value on bovine factor Xa (setting [7]) was 12.944. The vinit on bovine factor Xa (setting [7]) is 12.386 and 12.902 and 13.544; on bovine factor Xa (setting [8]), 30.668 and 30.24 and 32.808; on bovine factor Xa (setting [1]) it was 11.3; on human thrombin (setting [2]), 32.036 and 31.782. Besides, the Ki at bovine factor Xa (substrate 100 µM) came out at 482 µM; at bovine factor Xa (substrate 200 µM) it was 538 µM.

`COC(=O)c1c(C)nc(C2CC2)[nH]c1=O` [SX-F1]: on bovine factor Xa (setting [1]), the “V0 / Vi” value was 0.96; the vinit was 17.6 and 18.945. Also, on human thrombin (setting [2]), the “V0 / Vi” value came out at 1.06; the vinit is 25.964 and 29.418.

On to `N#CC1CCS(=O)(=O)C1` (stereo not shown) [SX-F2], for which, on bovine factor Xa (setting [1]), the “V0 / Vi” value amounted to 0.97; the vinit is 17.745 and 18.291. At human thrombin (setting [2]), the “V0 / Vi” value is given as 0.97; the vinit is 30.436 and 30.255.
